Data taken from patent US7273713B2, “Methods of modulating mitochondrial NAD-dependent deacetylase” (The Regents of the University of California, priority 2002, dated 2007).

Tests used:
[1] = tested on: import of hSIRT3 into isolated mammalian mitochondria; test: Import of radiolabeled hSIRT3 into isolated mitochondria; details: antimycin 8 μM, oligomycin 20 μM and valinomycin 1 μM added together to dissipate the transmembrane potential
Protocol: Import into isolated mitochondria was carried out as previously reported (22). Proteins were synthesized in the presence of [^35S]-methionine by coupled transcription-translation in reticulocyte lysate (Promega, Madison, Wis.) (23). In vitro translation reactions were centrifuged at 108,000×g, 2° C. for 15 min and adjusted to 250 mM sucrose. Import reactions contained 5% (v/v) reticulocyte lysate in import buffer (3% (w/v) fatty-acid free bovine serum albumin (BSA), 250 mM sucrose, 80 mM KCl, 5 mM MgCl2, 2 mM KH2PO4, 5 mM L-methionine, 10 mM 3-[N-morpholino]propanesulfonic acid-KOH, pH 7.2). In each import reaction, 50 μg of freshly isolated mammalian mitochondria were mixed with radiolabeled proteins and incubated at 30° C. ATP (2 mM) and sodium succinate (10 mM) were added to maintain coupling of isolated mitochondria. Import was stopped by addition of valinomycin (1 μM) and transfer to 0°C.
Where indicated, samples were treated with proteinase K (50 μg/ml) for 10 min on ice. Protease treatment was stopped by addition of 2 mM phenylmethylsulfonyl fluoride (PMSF). Mitochondria were reisolated by centrifugation at 10,000×g for 5 min at 4° C., washed in SEM buffer and recentrifuged as above. Mitochondrial pellets were resuspended in SDS sample buffer containing dithiothreitol (DTT) and heated to 95° C. for 5 min. Samples were subjected to SDS-PAGE. Dried gels were exposed to Biomax MR film (Kodak, Rochester, N.Y.) at −70° C. and analyzed on a Fuji FUJIX BAS 1000 phosphorimager. […]
FIG. 4. […] After reisolation of mitochondria and SDS-PAGE, the amounts of imported proteins were quantified by phosphorimaging. FIG. 4B, Quantitation of imported protein by phosphorimaging. […] Reisolated and washed mitochondria were lysed in SDS sample buffer and analyzed by SDS-PAGE. […] FIG. 4E, Import efficiency of individual hSIRT3 mutants was quantitated in relation to their standards by phosphorimaging. […]

[2] = tested on: NAD-dependent deacetylase activity in human mitochondrial fractions prepared from HEK293T cells; test: In vitro deacetylase assay on mitochondrial lysates, acetylated histone H4 peptide; details: NAD 1 mM, 2 hrs
Protocol: (§1) Deacetylase assays were performed in a total volume of 100 μl SIRT deacetylase buffer (4 mM MgCl2, 0.2 mM dithiothreitol, 50 mM Tris-HCl, pH 9.0) containing immunoprecipitated proteins or mitochondrial lysates and a peptide corresponding to the first the first 22 amino acids of histone 4 chemically acetylated in vitro (27). Where indicated, 1 mM NAD, 5 mM nicotinamide (both from Sigma, St. Louis, Mo.) or 400 nM TSA (WAKO, Richmond, Va.) were added. Deacetylation reactions were stopped after 2 hours of incubation at room temperature by adding 25 μl stop solution (0.1 M HCl, 0.16 M acetic acid). Released acetate was extracted into 500 μl ethyl acetate and samples were vigorously shaken for 15 minutes. After centrifugation for 5 minutes, 400 μl of the ethyl acetate fraction was mixed with 5 ml scintillation fluid (Packard, Meriden, Conn.) and the released radioactivity was measured using a liquid scintillation counter.
Mitochondrial lysates were prepared from HEK293T cells and protein content was determined. […] Samples were incubated for 2 hrs at 25° C.

hSIRT3 = molecular target: T1, hSIRT3 (Homo sapiens, UniProt Q9NTG7); test: In vitro deacetylase assay on mitochondrial lysates of hSIRT3-transfected cells; format: biochemical; details: lysates of hSIRT3-transfected HEK293T cells, compared with untransfected lysates
T1 construct: proteolytically cleaved by mitochondrial matrix processing peptidase (MPP) between residues Ser101 and Ilel02; expressed in transfected cells; host or cells: HEK293T cells, mitochondrial lysate in TXIP-1 buffer
T1 sequence (Q9NTG7 102-399 limits assumed): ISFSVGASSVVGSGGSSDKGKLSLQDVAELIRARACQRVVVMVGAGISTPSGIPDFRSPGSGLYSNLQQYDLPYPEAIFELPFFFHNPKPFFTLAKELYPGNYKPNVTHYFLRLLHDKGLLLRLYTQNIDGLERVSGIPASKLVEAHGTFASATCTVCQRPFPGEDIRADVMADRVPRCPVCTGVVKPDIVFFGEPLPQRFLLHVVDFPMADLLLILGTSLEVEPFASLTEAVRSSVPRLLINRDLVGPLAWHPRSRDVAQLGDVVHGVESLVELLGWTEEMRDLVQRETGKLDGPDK
Protocol: as §1
In vitro deacetylase activities of equal amounts of mitochondrial lysate are shown.

| Compound | effect on import of hSIRT3 across the mitochondrial membrane [1] | further results |
| --- | --- | --- |
| antimycin | inhibited | – |
| NC(=O)c1cccnc1 [nicotinamide] | – | effect on NAD-dependent deacetylase activity of mitochondrial lysate ([2]; nicotinamide 5 mM): suppressed |
| CC(/C=C/C(=O)NO)=C\[C@@H](C)C(=O)c1ccc(N(C)C)cc1 [TSA, trichostatin A] | – | sensitivity of deacetylase activity of mitochondrial lysates overexpressing hSIRT3 (hSIRT3): same properties as untransfected mitochondrial lysates; effect on NAD-dependent deacetylase activity of mitochondrial lysate ([2]; TSA 400 nM): no effect |
| CC[C@H]1/C=C/C=C/C[C@@H](C)[C@H](O)[C@@](C)(O)C(=O)[C@@H](C)[C@H](O)[C@@H](C)C(=O)[C@@H](C)[C@H](O)[C@@H](C)/C=C/C(=O)O[C@@H]2[C@H](C)[C@H](CC1)O[C@]1(CC[C@H](C)[C@H](C[C@@H](C)O)O1)[C@H]2C [oligomycin] | inhibited | – |
| CC(C)[C@@H]1NC(=O)[C@H](C)OC(=O)[C@@H](C(C)C)NC(=O)[C@@H](C(C)C)OC(=O)[C@H](C(C)C)NC(=O)[C@H](C)OC(=O)[C@@H](C(C)C)NC(=O)[C@@H](C(C)C)OC(=O)[C@H](C(C)C)NC(=O)[C@H](C)OC(=O)[C@@H](C(C)C)NC(=O)[C@@H](C(C)C)OC1=O [valinomycin] | inhibited | – |
